Among the test systems are LOX IMVI melanoma; TK-10 renal; NCI-H522 lung; OVCAR-4 ovarian; IGROV1 ovarian; SN12C renal; 786-0 renal; M19-MEL melanoma; LXFL 529 NSCLC; HOP-92 NSCLC.
Experiment in all cases: NCI tumour cell line growth inhibition, 48 h

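Assay format: 96-well plates, 48-hour exposure. GI50 marks 50% less growth. The concentration for full growth arrest is given as TGI.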

`COC(c1cccc(C(O)(C(F)(F)F)C(F)(F)F)c1)(C(F)(F)F)C(F)(F)F`: the TGI in the assay with LOX IMVI melanoma came out at 34.1 µM; in the assay on TK-10 renal, 36.6 µM; in the assay with NCI-H522 lung, 26.5 µM; in the assay on OVCAR-4 ovarian it was 30.4 µM; in the assay with IGROV1 ovarian, 35.3 µM; in the assay with SN12C renal, 32.2 µM. Besides, the TGI in the assay with 786-0 renal worked out at 31.8 µM; in the assay with M19-MEL melanoma, 30.5 µM; in the assay on LXFL 529 NSCLC, 32 µM.
Take `O=C(C=Nc1ccccc1C(=O)[O-])c1cccs1.O=C(C=Nc1ccccc1C(=O)[O-])c1cccs1.[Co+2]`: the TGI with LOX IMVI melanoma, in the assay with TK-10 renal, in the assay with NCI-H522 lung, in the assay on IGROV1 ovarian, in the assay on SN12C renal and in the assay with HOP-92 NSCLC was > 100 µM in each case. Also, the TGI in the assay on 786-0 renal and in the assay with M19-MEL melanoma was > 100 µM each time. Further, in the assay with M19-MEL melanoma, the GI50 was > 100 µM.
Regarding `CC(=O)Oc1cc(C)c2c(c1OC(C)=O)CC1(O2)[C@@H](C)CCC2[C@@]3(C)CC[C@H](OC(C)=O)C(C)(C)C3CC[C@]21C` (stereo partly specified), the TGI in the assay on LOX IMVI melanoma amounted to 14 µM; in the assay on TK-10 renal, 11.1 µM; in the assay on IGROV1 ovarian, 4.49 µM; in the assay on SN12C renal it was 11.8 µM; in the assay with HOP-92 NSCLC, 8.01 µM; in the assay with 786-0 renal, 7.46 µM. Moreover, the values for the TGI in the assay on M19-MEL melanoma and in the assay with LXFL 529 NSCLC were 5.04 µM and 16 µM, respectively.
`C/C(=N\NC(N)=S)c1cc(C)c(C)cc1C`: the TGI in the assay with LOX IMVI melanoma, in the assay on TK-10 renal, with OVCAR-4 ovarian, with IGROV1 ovarian, in the assay on SN12C renal and in the assay on HOP-92 NSCLC was > 100 µM each time. Besides, the TGI with 786-0 renal is > 100 µM; in the assay with M19-MEL melanoma it was 74.2 µM; in the assay with LXFL 529 NSCLC it was > 100 µM.
Consider `[Cl][Sn]([Cl])([c]1ccccc1)[c]1ccccc1`, for which the GI50 was 4.51 µM in the assay with LOX IMVI melanoma; 15.7 µM in the assay with TK-10 renal; 16.8 µM in the assay with OVCAR-4 ovarian; 19.3 µM in the assay with IGROV1 ovarian; 14.9 µM in the assay on SN12C renal; 3.02 µM in the assay with HOP-92 NSCLC. Also, the GI50 in the assay with 786-0 renal is 4.8 µM; in the assay with M19-MEL melanoma it was 19.5 µM; in the assay on LXFL 529 NSCLC, 1.53 µM. In addition, the TGI in the assay on LOX IMVI melanoma worked out at 17.1 µM; in the assay with TK-10 renal, 29.7 µM; in the assay with OVCAR-4 ovarian, 31 µM; in the assay on IGROV1 ovarian it was 38.3 µM; with SN12C renal, 28.2 µM; in the assay on HOP-92 NSCLC it was 6.36 µM. The TGI is 16.7 µM in the assay on 786-0 renal, 68.6 µM in the assay with M19-MEL melanoma and 2.93 µM with LXFL 529 NSCLC.
For `CSc1cccc(-n2c3nc(=O)n(C)c(=O)c-3nc3ccccc32)c1`, the TGI with TK-10 renal amounted to 40.9 µM; in the assay with NCI-H522 lung, 28.3 µM; in the assay on OVCAR-4 ovarian it was 21.6 µM; in the assay with IGROV1 ovarian it was 36 µM; in the assay with SN12C renal, 17.9 µM; in the assay with HOP-92 NSCLC, 25.3 µM. Moreover, the TGI in the assay with 786-0 renal amounted to 33.4 µM; in the assay with M19-MEL melanoma, 5.03 µM; with LXFL 529 NSCLC, 26.2 µM.
Regarding `CCOC(=O)c1c(-c2ccccc2)oc(-c2ccccc2)c1C(=O)OCC`, the TGI in the assay with LOX IMVI melanoma, in the assay on TK-10 renal, in the assay with NCI-H522 lung, with IGROV1 ovarian, in the assay on SN12C renal and with HOP-92 NSCLC was > 100 µM throughout. The TGI in the assay with 786-0 renal, with M19-MEL melanoma and with LXFL 529 NSCLC was > 100 µM in each case.
Regarding `CC1(Cl)CC2OC3(Br)C=CC(C)(O)C2(CC1Br)C3(C)C` (stereo unspecified), the TGI with LOX IMVI melanoma, with TK-10 renal, in the assay with OVCAR-4 ovarian, with IGROV1 ovarian, with SN12C renal and with HOP-92 NSCLC was > 100 µM each time. Besides, the TGI with 786-0 renal, in the assay with M19-MEL melanoma and in the assay on LXFL 529 NSCLC was > 100 µM each time.
On to `Cc1cc(Cl)cc2c(N=Nc3ccccc3[N+](=O)[O-])c(O)[nH]c12`, for which the TGI with LOX IMVI melanoma, with TK-10 renal, in the assay with NCI-H522 lung, in the assay on OVCAR-4 ovarian, in the assay with IGROV1 ovarian and with SN12C renal was > 100 µM in each case. Further, the TGI with HOP-92 NSCLC and with 786-0 renal was > 100 µM throughout.
Turning to `CC[O-].CC[O-].O=C([CH-]C(=O)c1cccnc1)c1ccccc1.O=C([CH-]C(=O)c1cccnc1)c1ccccc1.[Ti+4]`, the GI50 with LOX IMVI melanoma is > 100 µM; in the assay on NCI-H522 lung it was 26.1 µM; with OVCAR-4 ovarian, > 100 µM; with IGROV1 ovarian, > 100 µM; in the assay on SN12C renal, > 100 µM; in the assay on 786-0 renal, 61.1 µM. In addition, the GI50 is 77.7 µM in the assay with M19-MEL melanoma and 43.6 µM in the assay with LXFL 529 NSCLC. The TGI in the assay with LOX IMVI melanoma, with NCI-H522 lung, in the assay on OVCAR-4 ovarian, in the assay with IGROV1 ovarian, with SN12C renal and with 786-0 renal was > 100 µM each time. For the same molecule, the TGI in the assay with M19-MEL melanoma and in the assay with LXFL 529 NSCLC was > 100 µM each time.
Take `N=C(N)c1ccc(OCCOCCOc2ccc(C(=N)N)cc2)cc1`: the GI50 in the assay with LOX IMVI melanoma is > 100 µM; in the assay with TK-10 renal it was 39.2 µM; in the assay on NCI-H522 lung, 45.5 µM; with OVCAR-4 ovarian, > 100 µM; with IGROV1 ovarian, > 100 µM; in the assay on SN12C renal it was 58.8 µM. For the same molecule, the GI50 in the assay on HOP-92 NSCLC is 74.6 µM; in the assay on 786-0 renal it was > 100 µM. Moreover, the TGI in the assay on LOX IMVI melanoma, in the assay on TK-10 renal, with NCI-H522 lung, in the assay on OVCAR-4 ovarian, in the assay with IGROV1 ovarian and in the assay on SN12C renal was > 100 µM each time. The TGI in the assay on HOP-92 NSCLC and with 786-0 renal was > 100 µM each time.
Take `Cc1cc2cc3cc(C)c(N(C)C)cc3[n+](C)c2cc1N(C)C`: the GI50 in the assay on LOX IMVI melanoma was 3.14 µM; in the assay with TK-10 renal, 5.19 µM; in the assay with NCI-H522 lung, 5.35 µM; with OVCAR-4 ovarian, 2.83 µM; in the assay with IGROV1 ovarian, 5.04 µM; in the assay with SN12C renal, 3.91 µM. The values for the GI50 with HOP-92 NSCLC and with 786-0 renal were 2.3 µM and 5.1 µM, respectively. The TGI with LOX IMVI melanoma is 40.8 µM; in the assay with TK-10 renal, 58.4 µM; in the assay with NCI-H522 lung it was 36.1 µM; with OVCAR-4 ovarian it was 34.2 µM; in the assay on IGROV1 ovarian it was > 100 µM; in the assay on SN12C renal it was > 100 µM. The TGI in the assay on HOP-92 NSCLC came to 11.1 µM; in the assay on 786-0 renal it was 18.8 µM.

Source of the values: PubChem BioAssay (NCI).
